# Measured values: patent US12065430B2, “Indazole compound or salt thereof” (TAIHO PHARMACEUTICAL CO., LTD., priority 2018, dated 2024)
# Molecular target: G12C K-Ras4B (1-169) (Homo sapiens (Human), UniProt P01116, G12C)
# Test: Test of compounds on whether to bind to KRASG12C (LC-MS compound binding rate)
# Settings: final compound concentration of 2 μM, 1 μM protein, 25° C. for 2 hours
# Description: Test compounds were prepared in the form of a 10 mM DMSO solution.
# K-Ras4B (1-169) and G12C K-Ras4B (1-169) proteins were mixed and diluted with a buffer (1×TBS, 0.1 mM TCEP) to prepare individual 1 μM protein solutions. A 10 mM test compound was diluted tenfold with DMSO to make a 1 mM solution, and then diluted fivefold with DMSO to make a 200 μM solution. The 200 μM solution was further diluted fivefold to make a 40 μM solution. When the final compound concentration was 10 μM, 1 μL of a 200 μM test compound was added to 19 μL of a 1 μM protein solution. When the final compound concentration was 2 μM, 1 μL of a 40 μM test compound was added to 19 μL of a 1 μM protein solution. The mixtures were stored in an incubator at 25° C. for 2 hours, and 80 μL of a 1×TBS solution containing 0.2% formic acid was added thereto to end the reaction, followed by LC-MS measurement. LC-MS measurement was performed using Xevo G2-S Q-Tof manufactured by Waters, and reverse-phase chromatography was performed with a desalting column. A mass spectrum of positive ions was obtained by electrospray. For a mass spectrum, a spectrum of a polyvalent ion was collectively converted to a molecular weight by using OpenLynx software by the MaxEnt technique, and a compound binding rate was obtained from the ratio of a signal intensity that corresponds to the molecular weight of a protein to a signal intensity that corresponds to the molecular weight of a compound binding to the protein.
# By obtaining the compound binding rate for K-Ras4B (1-169) and the compound binding rate for G12C K-Ras4B (1-169) at the same time, information of the selectivity for G12C K-Ras4B (1-169) was obtained at the same time.
# The test compounds were measured at their final compound concentration of 2 μM. […] Almost no compounds of the present invention binded to K-Ras4B (1-169). The “binding rate” (%) for each of K-Ras4B (1-169) and G12C K-Ras4B (1-169) refers to the ratio of the signal intensity of binded forms to the sum of the signal intensity of non-binded forms and the signal intensity of binded forms.
# Chain of G12C K-Ras4B (1-169) (P01116 other isoform, or with tags, fused parts or gaps G12C): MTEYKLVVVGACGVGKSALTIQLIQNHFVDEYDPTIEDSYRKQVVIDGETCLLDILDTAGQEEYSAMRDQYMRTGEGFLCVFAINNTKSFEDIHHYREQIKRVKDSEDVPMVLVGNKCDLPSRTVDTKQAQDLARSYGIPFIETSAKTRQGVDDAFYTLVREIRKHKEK
row,Structure (SMILES),binding rate for G12C K-Ras4B (1-169)
1,"C=CC(=O)N1CC(NC(=O)c2c(C)nc(CNc3n[nH]c4cc(Cl)c(C(C)(C)C)cc34)n2CC(F)(F)F)C1 [Example 22, N-(1-acryloylazetidin-3-yl)-2-(((5-(tert-butyl)-6-chloro-1H-indazol-3-yl)amino)methyl)-4-methyl-1-(2,2,2-trifluoroethyl)-1H-imidazole-5-carboxamide]","B (a binding rate of 60% or more and less than 80% is rated “B,”)"
2,"C=CC(=O)N1CC(NC(=O)c2c(C)nc(CNc3n[nH]c4cc(Cl)c(C(C)(C)C)cc34)n2C2CC2)C1 [Example 23, N-(1-acryloylazetidin-3-yl)-2-(((5-(tert-butyl)-6-chloro-1H-indazol-3-yl)amino)methyl)-1-cyclopropyl-4-methyl-1H-imidazole-5-carboxamide]","A (a binding rate of 80% or more is rated “A,”)"
3,"C=CC(=O)N1CC(NC(=O)c2c(C)nc(CNc3n[nH]c4cc(Cl)c(C(C)(C)C)cc34)n2C(C)(C)C)C1 [Example 24, N-(1-acryloylazetidin-3-yl)-1-(tert-butyl)-2-(((5-(tert-butyl)-6-chloro-1H-indazol-3-yl)amino)methyl)-4-methyl-1H-imidazole-5-carboxamide]","C (a binding rate of 40% or more and less than 60% is rated “C,”)"
4,"C=CC(=O)N1CC(NC(=O)c2c(C(F)(F)F)nc(CNc3n[nH]c4cc(Cl)c(C(C)(C)C)cc34)n2C)C1 [Example 25, N-(1-acryloylazetidin-3-yl)-2-(((5-(tert-butyl)-6-chloro-1H-indazol-3-yl)amino)methyl)-1-methyl-4-(trifluoromethyl)-1H-imidazole-5-carboxamide]","A (a binding rate of 80% or more is rated “A,”)"
5,"C=CC(=O)N1CC(NC(=O)c2c(I)nc(CNc3n[nH]c4cc(Cl)c(C(C)(C)C)cc34)n2C)C1 [Example 26, N-(1-acryloylazetidin-3-yl)-2-(((5-(tert-butyl)-6-chloro-1H-indazol-3-yl)amino)methyl)-4-iodo-1-methyl-1H-imidazole-5-carboxamide]","A (a binding rate of 80% or more is rated “A,”)"
6,"C=CC(=O)N1CC(NC(=O)c2c(Br)nc(CNc3n[nH]c4cc(Cl)c(C(C)(C)C)cc34)n2C)C1 [Example 27, N-(1-acryloylazetidin-3-yl)-4-bromo-2-(((5-(tert-butyl)-6-chloro-1H-indazol-3-yl)amino)methyl)-1-methyl-1H-imidazole-5-carboxamide]","A (a binding rate of 80% or more is rated “A,”)"
7,"C=CC(=O)N1CC(NC(=O)c2c(C#N)nc(CNc3n[nH]c4cc(Cl)c(C(C)(C)C)cc34)n2C)C1 [Example 28, N-(1-acryloylazetidin-3-yl)-2-(((5-(tert-butyl)-6-chloro-1H-indazol-3-yl)amino)methyl)-4-cyano-1-methyl-1H-imidazole-5-carboxamide]","B (a binding rate of 60% or more and less than 80% is rated “B,”)"
8,"C=CC(=O)N1CC(NC(=O)c2c(F)nc(CNc3n[nH]c4cc(Cl)c(C(C)(C)C)cc34)n2C)C1 [Example 30, N-(1-acryloylazetidin-3-yl)-2-(((5-(tert-butyl)-6-chloro-1H-indazol-3-yl)amino)methyl)-4-fluoro-1-methyl-1H-imidazole-5-carboxamide]","C (a binding rate of 40% or more and less than 60% is rated “C,”)"
9,"C=CC(=O)N1CC(NC(=O)c2c(CC)nc(CNc3n[nH]c4cc(Cl)c(C(C)(C)C)cc34)n2C)C1 [Example 31, N-(1-acryloylazetidin-3-yl)-2-(((5-(tert-butyl)-6-chloro-1H-indazol-3-yl)amino)methyl)-4-ethyl-1-methyl-1H-imidazole-5-carboxamide]","D (a binding rate of 20% or more and less than 40% is rated “D,”)"
10,"C=CC(=O)N1CC(NC(=O)c2c(C(F)(F)F)nc(CNc3n[nH]c4cc(Cl)c(C(C)(C)C)cc34)n2C(C)C)C1 [Example 32, N-(1-acryloylazetidin-3-yl)-2-(((5-(tert-butyl)-6-chloro-1H-indazol-3-yl)amino)methyl)-1-isopropyl-4-(trifluoromethyl)-1H-imidazole-5-carboxamide]","B (a binding rate of 60% or more and less than 80% is rated “B,”)"
11,"C=CC(=O)N1CC(NC(=O)c2c(F)nc(CNc3n[nH]c4cc(Cl)c(C(C)(C)C)cc34)n2C(C)C)C1 [Example 34, N-(1-acryloylazetidin-3-yl)-2-(((5-(tert-butyl)-6-chloro-1H-indazol-3-yl)amino)methyl)-4-fluoro-1-isopropyl-1H-imidazole-5-carboxamide]","A (a binding rate of 80% or more is rated “A,”)"
12,"[2H]C([2H])(Nc1n[nH]c2cc(Cl)c(C(C)(C)C)cc12)c1nc(C(F)F)c(C(=O)NC2CN(C(=O)C=C)C2)n1C(C)C [Example 36, N-(1-acryloylazetidin-3-yl)-2-(((5-(tert-butyl)-6-chloro-1H-indazol-3-yl)amino)methyl-d2)-4-(difluoromethyl)-1-isopropyl-1H-imidazole-5-carboxamide]","B (a binding rate of 60% or more and less than 80% is rated “B,”)"
13,"C=CC(=O)N1CC(NC(=O)c2cnc(CNc3n[nH]c4cc(Cl)c(C)cc34)n2C)C1 [Example 37, N-(1-acryloylazetidin-3-yl)-2-(((6-chloro-5-methyl-1H-indazol-3-yl)amino)methyl)-1-methyl-1H-imidazole-5-carboxamide]","C (a binding rate of 40% or more and less than 60% is rated “C,”)"
14,"C=CC(=O)N1CC(NC(=O)c2cnc(CNc3n[nH]c4cc(Cl)c(C=C)cc34)n2C)C1 [Example 38, N-(1-acryloylazetidin-3-yl)-2-(((6-chloro-5-vinyl 1H-indazol-3-yl)amino)methyl)-1-methyl-1H-imidazole-5-carboxamide]","C (a binding rate of 40% or more and less than 60% is rated “C,”)"
15,"C=CC(=O)N1CC(NC(=O)c2cnc(CNc3n[nH]c4cc(Cl)c(CC)cc34)n2C)C1 [Example 39, N-(1-acryloylazetidin-3-yl)-2-(((6-chloro-5-ethyl-1H-indazol-3-yl)amino)methyl)-1-methyl-1H-imidazole-5-carboxamide]","C (a binding rate of 40% or more and less than 60% is rated “C,”)"
16,"C=CC(=O)N1CC(NC(=O)c2cnc(CNc3n[nH]c4cc(Cl)c(C(C)(C)C)nc34)n2C)C1 [Example 40, N-(1-acryloylazetidin-3-yl)-2-(((5-(tert-butyl)-6-chloro-1H-pyrazolo[4,3-b]pyridin-3-yl)amino)methyl)-1-methyl-1H-imidazole-5-carboxamide]","A (a binding rate of 80% or more is rated “A,”)"
17,"C=CC(=O)N1CC(NC(=O)c2c(C)nc(CNc3n[nH]c4cc(C)c(C(C)(C)C)cc34)n2C)C1 [Example 41, N-(1-acryloylazetidin-3-yl)-2-(((5-(tert-butyl)-6-methyl-1H-indazol-3-yl)amino)methyl)-1,4-dimethyl-1H-imidazole-5-carboxamide]","A (a binding rate of 80% or more is rated “A,”)"
18,"C=CC(=O)N1CC(NC(=O)c2c(C)nc(CNc3n[nH]c4ccc(C(C)(C)C)cc34)n2C(C)C)C1 [Example 42, N-(1-acryloylazetidin-3-yl)-2-(((5-(tert-butyl)-1H-indazol-3-yl)amino)methyl)-1-isopropyl-4-methyl-1H-imidazole-5-carboxamide]","B (a binding rate of 60% or more and less than 80% is rated “B,”)"
19,"C=CC(=O)N1CC(NC(=O)c2c(Cl)nc(CNc3n[nH]c4cc(Cl)c(C(=C)C(F)(F)F)cc34)n2C(C)C)C1 [Example 43, N-(1-acryloylazetidin-3-yl)-4-chloro-2-(((6-chloro-5-(3,3,3-trifluoroprop-1-en-2-yl)-1H-indazol-3-yl)amino)methyl)-1-isopropyl-1H-imidazole-5-carboxamide]","C (a binding rate of 40% or more and less than 60% is rated “C,”)"
20,"C=CC(=O)N1CC(NC(=O)c2c(Cl)nc(CNc3n[nH]c4cc(Cl)c(C5(C(F)(F)F)CC5)cc34)n2C(C)C)C1 [Example 44, N-(1-acryloylazetidin-3-yl)-4-chloro-2-(((6-chloro-5-(1-(trifluoromethyl)cyclopropyl)-1H-indazol-3-yl)amino)methyl)-1-isopropyl-1H-imidazole-5-carboxamide]","B (a binding rate of 60% or more and less than 80% is rated “B,”)"
21,"C=CC(=O)N1CC(NC(=O)c2c(Cl)nc(CNc3n[nH]c4cc(Cl)c(C(C)C)cc34)n2C(C)C)C1 [Example 45, N-(1-acryloylazetidin-3-yl)-4-chloro-2-(((6-chloro-5-isopropyl-1H-indazol-3-yl)amino)methyl)-1-isopropyl-1H-imidazole-5-carboxamide]","A (a binding rate of 80% or more is rated “A,”)"
